Experiments:
[1] = test system: sAPP secretion in PC12 cells; test: sAPP secretion in PC12 cells, Western immunoblot of conditioned media (Example 1); type: cell-based; settings: for secretion of sAPP versus control: single agent, PC12 conditioned media, 48 hours, 22C11 immunoblot, NGF 10 and 50 ng/ml, bFGF 50 ng/ml, AIT-082 different doses
Description: Treatment of Cells and Preparation of Cell Extract. PC12 cells were first grown to 70-80% confluence in the regular medium. A day prior to the experiment, PC12 cells were subcultured uniformly onto the plate with minimum cellular aggregation/ clumping to approximately 1×10^6 cells per 60-mm plate. The PC12 cells were then subjected to treatments with either AIT-082, NGF, bFGF or a combination as previously described (4). AIT-082 was added into separate plates at […] different doses: 0, 5, 20, 30, 50, 100, 300 ng/ ml and also 1, 3, 10, 30, 100 μg/ml. For comparative purposes, cultures were treated with NGF at 10 and 50 ng/ml, and bFGF was used at 50 ng/ml. Additional cultures contained both AIT-082 (300 ng/ml) and either NGF (50 ng/ml) or bFGF (50 ng/ml). Following incubation for 48 hours, the conditioned medium from each plate was collected.
PAGE and Western Immunoblotting. Total proteins from the conditioned media were analyzed on a 12% polyacrylamide gel containing SDS (SDS-PAGE), and western blot analysis was performed in the Mini-PROTEAN II system of Bio-Rad as described previously (6). sAPP was detected using the 22C11 (Boehringer Mannheim, Indianapolis, Ind.). A biotinylated secondary antibody, horse anti-mouse (Boehringer Mannheim), was also used. The detection system was based on the avidin-biotinylated-complex (Vector labs, Burlingame, Calif.) and enzymatic color reactions.
Treatment of NGF or bFGF Results in a Substantial Increase in sAPP Secretion in PC12 Cells. In denaturing polyacrylamide gel, an equal amount of total protein was loaded from each of the conditioned medium samples. After 48 hours of incubation, 50 μg samples of conditioned media were subjected to SDS-PAGE (12%) and transferred to a nitrocellulose membrane. Protein size markers shown on the left of the blot from top to bottom are: 107, 74, 49.3, 36.4, and 28.5 kDa. For FIG. 1, the transferred proteins were probed with anti-APP antibody (22C11), and immunodetection was carried out by the enzymatic color method as described previously (5). Two distinct bands of 110 and 95 kDa were detected, which correspond to soluble APP derivatives (sAPP) arising from different alternate forms of APP and/or their posttranslationally modified derivatives.

[2] = test system: sAPP release from PC12 cultures; settings: previously shown, reference 7; cited from earlier work
PC12 cells = test: NGF-mediated differentiation of PC12 cells (Example 2); type: cell-based
[3] = test system: secretion of Aβ in cultured PC12 cells; test: Secretion of Aβ in cultured PC12 cells, sandwich ELISA (Example 3); type: cell-based; settings: AIT-082 100 μg/ml, PC12 conditioned media
Description: To determine the effect of AIT-082 on Aβ levels, PC12 cells were treated with a high dose of AIT-082 (100 μg/ ml) and the conditioned media was analyzed for Aβ. Levels of total Aβ were measured using a sensitive sandwich ELISA. Experiments were done in triplicate and the values were obtained from known standards run in parallel with the samples as described previously (A. Becher et al., “The Synaptophysin-Synaptobrevin Complex: A Hallmark of Synaptic […] Maturation,” J. Neurosci. 19: 1922-1931).

[4] = test system: sAPP secretion in PC12 cells; test: Time course of sAPP secretion in PC12 cells, Western immunoblotting (Example 2); type: cell-based; settings: PC12 cells treated for 6, 12, 24, 48, or 72 hours; AIT-082 10 nM-100 μM; RPMI 1640 and 0.5% FBS
Description: To determine the time course of sAPP secretion after administration of AIT-082 or NGF to PC12 cells, an experiment similar to the experiment of Example 1 was carried out using multiple time points. Five to six million PC12 cells were treated in RPMI 1640 and 0.5% FBS with doses of AIT-082 (10 nM-100 μM). […] Levels of sAPP in samples from conditioned media and cell lysates were measured by Western immunoblotting with anti-sAPP antibody. When PC12 cells were treated with AIT-082 for 6, 12, 24, 48, or 72 hours, there was an increase in levels of secreted sAPP.

[5] = test system: nerve growth factor (NGF), neurotrophin-3, and basic fibroblast growth factor (bFGF); settings: at least three neurotrophins; reference 3; cited from earlier work

bFGF: basic fibroblast growth factor procured from Life Technologies
secretion of sAPP versus control [1]: slight increase

NGF: Nerve growth factor procured from Life Technologies
release of sAPP from PC12 cultures [2]: induce the release of sAPP
differentiation phenotype of PC12 cells (PC12 cells; NGF treatment alone): sympathetic neuronal phenotypes
secretion of sAPP versus control [1]: significant increase

O=C(CCn1cnc2c(=O)[nH]cnc21)Nc1ccc(C(=O)O)cc1 [AIT-082, N-4-carboxyphenyl-3-(6-oxohydropurin-9-yl) propanamide]
Percent change from controls (total Aβ) [3]: −20%
Levels of total Aβ ([3]; triplicate): 136 ± 6 fmols/ml
levels of secreted sAPP [4]: increase
effect of cotreatment on NGF-mediated differentiation (PC12 cells; AIT-082 cotreatment with NGF, PC12 cells): enhanced NGF-mediated differentiation
levels of extracellular sAPP versus control cultures (dose response, densitometry, FIG. 2) ([1]; AIT-082 5-300 ng/ml, PC12): statistically significantly higher
secretion of sAPP versus control [1]: significant increase
expression of neurotrophins (NGF, neurotrophin-3, bFGF) [5]: induce the expression

— patent publication US20020040031A1, “Methods for prevention of accumulation of amyloid beta peptide in the central nervous system” (priority 2000, published 2002)
